In data set [1] the target is Growth hormone secretagogue receptor type 1 (Homo sapiens, UniProt Q92847). Briefly: Inhibition of [125I]ghrelin binding to human recombinant ghrelin receptor membrane preparation.
Data set [2] is described as follows: Clearance value intravenously administered to rats with 5 mg/kg. Type of data set: ADME, organism-based. Details: dose 5 mg/kg, route intravenous. The following applies: rat, in vivo, iv.
The nature of data set [3]: Cmax value in rat after oral dose of 20 mg/k. To be noted: in vivo, 20 mg/kg. Type of data set: ADME, organism-based. Details: route oral.
Data set [4] can be described thus: Volume of distribution value intravenously administered to rats with 5 mg/kg. Format: ADME, organism-based. Also on record: dose 5 mg/kg, route intravenous. The following applies: rat, in vivo, iv.
A short description of data set [5]: Half life value intravenously administered to rats with 5 mg/kg. Type of data set: ADME, organism-based. Also on record: dose 5 mg/kg, route intravenous. The following applies: rat, in vivo, iv.
The nature of data set [6]: Bioavailability value in rat after oral dose of 20 mg/k. Format: ADME, organism-based. The following applies: in vivo, 20 mg/kg, read-out: Bioavailabiility.

The values below come from ChEMBL document CHEMBL1142056, “Structure-activity relationships of the oxindole growth hormone secretagogues” (Bioorg Med Chem Lett, 2005).

Sequence of Growth hormone secretagogue receptor type 1 (Q92847 whole entry): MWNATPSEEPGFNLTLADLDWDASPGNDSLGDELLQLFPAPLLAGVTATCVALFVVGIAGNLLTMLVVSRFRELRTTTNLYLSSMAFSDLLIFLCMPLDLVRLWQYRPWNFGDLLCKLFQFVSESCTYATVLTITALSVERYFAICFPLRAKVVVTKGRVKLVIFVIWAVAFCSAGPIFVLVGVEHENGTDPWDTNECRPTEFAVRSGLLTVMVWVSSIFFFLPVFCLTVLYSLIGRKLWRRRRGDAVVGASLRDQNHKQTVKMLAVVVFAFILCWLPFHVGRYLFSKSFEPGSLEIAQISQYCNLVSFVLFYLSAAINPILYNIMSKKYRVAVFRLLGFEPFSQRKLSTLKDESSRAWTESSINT

For `CCN(CC)CCN1C(=O)[C@@](O)(c2ccc(OC)cc2)c2c1cc(C(N)=O)cc2C(F)(F)F`, the IC50 in data set [1] was determined as 106 nM.

On to `CCN(CC)CCN1C(=O)[C@@](O)(c2cccc(OC)c2)c2c1cc(C(N)=O)cc2C(F)(F)F`, for which the IC50 in data set [1] amounted to 77 nM. Still for that read-out and setting: to `CCN(CC)CCN1C(=O)[C@@](O)(c2cccc(Cl)c2Cl)c2c1cc(C(N)=O)cc2C(F)(F)F` belongs 1.6 nM; to `CCN(CC)CCN1C(=O)[C@@](O)(c2cccc(Cl)c2)c2c1cc(C(N)=O)cc2C(F)(F)F`, 15 nM. Turning to `CCN(CC)CCN1C(=O)C(O)(c2ccccc2Cl)c2c1cc(C(N)=O)cc2C(F)(F)F` (configuration not stated), in data set [1], the IC50 was determined as 4 nM. Turning to `CCN(CC)CCN1C(=O)C(O)(c2ccccc2)c2c1cc(C(N)=O)cc2C(F)(F)F` (configuration not stated), the IC50 in data set [1] worked out at 116 nM. Same read-out and setting: to `CCN(CC)CCN1C(=O)[C@@](O)(c2ccccc2Cl)c2c1cc(C(N)=O)cc2C(F)(F)F` belongs 2.1 nM; to `CCN(CC)CCN1C(=O)[C@@](O)(c2ccccc2OC)c2c1cc(C(N)=O)cc2C(F)(F)F`, 160 nM.

For the compound `CCN(CC)CCN1C(=O)[C@@](O)(c2ccc(Cl)cc2)c2c1cc(C(N)=O)cc2C(F)(F)F`, the IC50 in data set [1] was determined as 83 nM. Take `CCN(CC)CCN1C(=O)[C@@](O)(c2c(Cl)cccc2Cl)c2c1cc(C(N)=O)cc2C(F)(F)F`: in data set [1], the IC50 was 4.2 nM.

Regarding `CCN(CC)CCN1C(=O)[C@@](O)(c2cc(Cl)ccc2Cl)c2c1cc(C(N)=O)cc2C(F)(F)F`, the IC50 in data set [1] stood at 0.24 nM. As to `CCN(CC)CCN1C(=O)[C@@](O)(c2ccc(Cl)cc2Cl)c2c1cc(C(N)=O)cc2C(F)(F)F`, the clearance in data set [2] stood at 51 mL/min/kg. For the same compound, the IC50 in data set [1] was found to be 0.02 nM. Also, the Cmax in data set [3] came out at 491 ng/mL. Moreover, the Vd in data set [4] was determined as 5.4 L/kg. For the same compound, the half-life in data set [5] is 1.6 h. Besides, in data set [6], the bioavailability was 28%.

Usually IC50 stands for the concentration at which inhibition is half-maximal. The clearance is a measure of how efficiently the substance is removed, as volume per time. A high value points to efficient removal. A word on the Cmax: it is the maximum level reached in the sampled fluid or tissue. A word on the Vd: it is the apparent volume that relates the amount in the body to the concentration in plasma or blood. Low readings indicate little distribution into tissue, high ones wide distribution into tissue. By half-life is commonly meant the time needed for the level to fall by half in the phase considered. A low value points to fast loss.
